Data reported in patent US20240174723A1, “STAPLED ANTIMICROBIAL PEPTIDES (STAMPS) AND USES THEREOF” (Lytica Therapeutics, Inc., priority 2021, published 2024).
Values after ≈ are worked out from the molar mass of the structure shown. Positions of bridges follow the written chain, without caps; N, C: chain ends. Non-standard residues stand in square brackets, D forms with d. Residues, ends and D or L forms follow the SMILES beside them. S5 = C=CCCC[C@](C)(N)C(=O)O; Dap = NC[C@H](N)C(=O)O

What was measured:
S. aureus = format: cell-based, Staphylococcus aureus
Procedure, shortened: (§1)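 Visible-growth endpoint after 20-24 h at 37 °C defines the MIC. Test organisms, pre-grown to log phase, were exposed at 5×10^5 CFU/ml to peptide dilution series in standard or cation-adjusted Mueller-Hinton broth.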

[1] = test system: Human Renal Proximal Tubule Epithelial Cells (RPTEC); test: in vitro; format: cell-based; settings: 90 min
Procedure, shortened: (§2)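 LDH release (absorbance at 490 nm) measured in the media of cells treated with serially diluted StAMPs or vehicle at 37 °C: 90 min for renal RPTEC, 48 h for liver HepG2. Cells were seeded overnight beforehand and media refreshed before dosing.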

E. coli = format: cell-based, Escherichia coli
Procedure, shortened: as §1

[2] = test system: Human Liver Cells (HepG2); test: in vitro; format: cell-based; settings: 48 hours
Procedure, shortened: (§3)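 Cytotoxicity read by CellTiter-Glo luminescence after 48 h at 37 °C exposure to serially diluted StAMPs or vehicle. HepG2 cells were grown in EMEM plus 10% FBS and given 4 h to attach before dosing; peptides came from a 5 mg/mL aqueous stock.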

A. baumannii = format: cell-based, Acinetobacter baumannii
Procedure, shortened: as §1

K. pneumoniae = format: cell-based, Klebsiella pneumoniae
Procedure, shortened: as §1

P. aeruginosa = format: cell-based, Pseudomonas aeruginosa
Procedure, shortened: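 MIC taken as lowest peptide concentration with no visible growth after 20-24 h at 37 °C. Peptide serial dilutions from water stocks met P. aeruginosa inoculum (5×10^5 CFU/ml final) in MHB or MHB II, per a CLSI-adapted microbroth protocol.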

in vitro [3] = format: cell-based; settings: human
Procedure, shortened: as §2

in vitro [4] = format: cell-based; settings: human, Inhibitory Concentration at 50% Cytotoxicity (IC50) Human Liver Cells (HepG2)
Procedure, shortened: as §3

| Compound | Minimum Inhibitory Concentration (MIC) S. aureus (S. aureus) [µg/mL] | Minimum Inhibitory Concentration (MIC) E. coli (E. coli) [µg/mL] | Minimum Inhibitory Concentration (MIC) A. baumannii (A. baumannii) [µg/mL] | Minimum Inhibitory Concentration (MIC) K. pneumoniae (K. pneumoniae) [µg/mL] | Minimum Inhibitory Concentration (MIC) P. aeruginosa (P. aeruginosa) [µg/mL] | IC50 at 90 min (in vitro [3]) [µg/mL] | Inhibitory Concentration at 50% Cytotoxicity (IC50) Human Renal Proximal Tubule Epithelial Cells (RPTEC) [1] [µg/mL] | Inhibitory Concentration at 50% Cytotoxicity (IC50) Human Liver Cells (HepG2) [2] [µg/mL] | IC50 at 48 hours (in vitro [4]) [µg/mL] |
| --- | --- | --- | --- | --- | --- | --- | --- | --- | --- |
| CC(C)[C@@H]1NC(=O)[C@@](C)(NC(=O)[C@H](C)NC(=O)[C@H](CCCCN)NC(=O)CNC(=O)[C@H](Cc2ccccc2)NC(=O)[C@H](CCCCN)NC(=O)[C@H](CCCCN)NC(=O)[C@H](CCCCN)NC(=O)[C@H](CO)NC(=O)[C@H](Cc2c[nH]cn2)NC(=O)[C@]2(C)CCCC=CCCC[C@](C)(NC(=O)CN)C(=O)NCC(=O)N[C@@H](CCCCN)C(=O)N[C@@H](Cc3ccccc3)C(=O)N2)CCCC=CCCC[C@@](C)(C(=O)N[C@@H](C)C(=O)N[C@@H](CCCCN)C(=O)N[C@@H](CCCCN)C(N)=O)NC(=O)[C@H](CCC(=O)O)NC(=O)[C@H](Cc2c[nH]c3ccccc23)NC1=O (single isomer, unassigned) [compound 65] | 32 | 4 | 2 |  |  |  | 110 | 150 |  |
| CC(C)[C@@H]1NC(=O)[C@@](C)(NC(=O)[C@H](C)NC(=O)[C@H](CCCCN)NC(=O)CNC(=O)[C@H](Cc2ccccc2)NC(=O)[C@H](CCCCN)NC(=O)[C@H](CCCCN)NC(=O)[C@H](CCCCN)NC(=O)[C@H](CCCCN)NC(=O)[C@H](CCN)NC(=O)[C@]2(C)CCCC=CCCC[C@](C)(NC(=O)CN)C(=O)NCC(=O)N[C@@H](CCCCN)C(=O)N[C@@H](Cc3ccccc3)C(=O)N2)CCCC=CCCC[C@@](C)(C(=O)N[C@@H](C)C(=O)N[C@@H](CCCCN)C(=O)N[C@@H](CCCCN)C(N)=O)NC(=O)[C@H](CCC(=O)O)NC(=O)CNC1=O (single isomer, unassigned) [compound 79] | >64 | 1 | 0.5 | 8 | 1 |  |  | 113 |  |
| CC(C)[C@@H]1NC(=O)[C@@](C)(NC(=O)[C@H](C)NC(=O)[C@H](CN)NC(=O)CNC(=O)[C@H](Cc2ccccc2)NC(=O)[C@H](CN)NC(=O)[C@H](CN)NC(=O)[C@H](CN)NC(=O)[C@H](CN)NC(=O)[C@H](CN)NC(=O)[C@]2(C)CCCC=CCCC[C@](C)(NC(=O)CN)C(=O)NCC(=O)N[C@@H](CN)C(=O)N[C@@H](Cc3ccccc3)C(=O)N2)CCCC=CCCC[C@@](C)(C(=O)N[C@@H](C)C(=O)N[C@@H](CN)C(=O)N[C@@H](CN)C(N)=O)NC(=O)[C@H](CCC(=O)O)NC(=O)CNC1=O [compound 25] (H-G[S5]G[Dap]F[S5][Dap][Dap][Dap][Dap][Dap]FG[Dap]A[S5]VGE[S5]A[Dap][Dap]-NH2; staple 2-6, 16-20) | >64 | 4 | 32 | 16 | 4 | > 800 |  |  | > 200 |

Second part, led by results:

| Minimum Inhibitory Concentration (MIC) S. aureus (S. aureus) [µg/mL] | Minimum Inhibitory Concentration (MIC) E. coli (E. coli) [µg/mL] | Minimum Inhibitory Concentration (MIC) A. baumannii (A. baumannii) [µg/mL] | Minimum Inhibitory Concentration (MIC) K. pneumoniae (K. pneumoniae) [µg/mL] | Minimum Inhibitory Concentration (MIC) P. aeruginosa (P. aeruginosa) [µg/mL] | IC50 at 90 min (in vitro [3]) [µg/mL] | Compound | Inhibitory Concentration at 50% Cytotoxicity (IC50) Human Renal Proximal Tubule Epithelial Cells (RPTEC) [1] [µg/mL] | Inhibitory Concentration at 50% Cytotoxicity (IC50) Human Liver Cells (HepG2) [2] [µg/mL] | IC50 at 48 hours (in vitro [4]) [µg/mL] |
| --- | --- | --- | --- | --- | --- | --- | --- | --- | --- |
| >64 | 2 | 2 | 4 | 4 | ~200 (≈ 77.3 µM) | CC(C)C[C@@H]1NC(=O)[C@H](C(C)C)NC(=O)[C@@](C)(NC(=O)[C@H](C)NC(=O)[C@H](CCCCN)NC(=O)CNC(=O)[C@H](Cc2ccccc2)NC(=O)[C@H](CCCCN)NC(=O)[C@H](CCCCN)NC(=O)[C@H](CCCCN)NC(=O)[C@H](CO)NC(=O)[C@H](Cc2c[nH]cn2)NC(=O)[C@]2(C)CCCC=CCCC[C@](C)(NC(=O)CN)C(=O)NCC(=O)N[C@@H](CCCCN)C(=O)N[C@@H](Cc3ccccc3)C(=O)N2)CCCC=CCCC[C@@](C)(C(=O)N[C@@H](C)C(=O)N[C@@H](CCCCN)C(=O)N[C@@H](CCCCN)C(N)=O)NC(=O)[C@H](CCC(=O)O)NC1=O [compound 12] (H-G[S5]GKF[S5]HSKKKFGKA[S5]VLE[S5]AKK-NH2; staple 2-6, 16-20) |  |  | ~200 (≈ 77.3 µM) |
| >64 | 2 | 2 | 7 | 6 | 203 (≈ 78.9 µM) | CC(C)[C@@H]1NC(=O)[C@H](C(C)C)NC(=O)[C@@](C)(NC(=O)[C@H](C)NC(=O)[C@H](CCCCN)NC(=O)CNC(=O)[C@H](Cc2ccccc2)NC(=O)[C@H](CCCCN)NC(=O)[C@H](CCCCN)NC(=O)[C@H](CCCCN)NC(=O)[C@H](CO)NC(=O)[C@H](Cc2c[nH]cn2)NC(=O)[C@]2(C)CCCC=CCCC[C@](C)(NC(=O)CN)C(=O)NCC(=O)N[C@@H](CCCCN)C(=O)N[C@@H](Cc3ccccc3)C(=O)N2)CCCC=CCCC[C@@](C)(C(=O)N[C@@H](C)C(=O)N[C@@H](CCCCN)C(=O)N[C@@H](CCCCN)C(N)=O)NC(=O)[C@H](CCC(=O)O)NC1=O [compound 11] (H-G[S5]GKF[S5]HSKKKFGKA[S5]VVE[S5]AKK-NH2; staple 2-6, 16-20) |  |  | 227 (≈ 88.2 µM) |
